Measurements from ChEMBL document CHEMBL1201862, “PubChem BioAssay data set” (2004).
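Interpolation was linear, between the two tested concentrations surrounding the appropriate level; five concentrations were tested over 48 hours in 96-well plates. At the GI50, growth is halved.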 Active and inactive are the calls of the source. No stated cut-off is given here; in the data, active = GI50 up to about 1.1 µM and inactive = higher.

Legend:
Assay in all cases: NCI tumour cell line growth inhibition, 48 h
ACHN = tested on: ACHN
HL-60 = tested on: HL-60
HOP-62 = tested on: HOP-62
K562 = tested on: K562
M14 = tested on: M14
MCF7 = tested on: MCF7
MOLT-4 = tested on: MOLT-4
NCI-H226 = tested on: NCI-H226
NCI-H460 = tested on: NCI-H460
OVCAR-4 = tested on: OVCAR-4
OVCAR-5 = tested on: OVCAR-5
OVCAR-8 = tested on: OVCAR-8
RPMI-8226 = tested on: RPMI-8226
SF-539 = tested on: SF-539
SK-MEL-28 = tested on: SK-MEL-28
SK-MEL-2 = tested on: SK-MEL-2
SN12C = tested on: SN12C
SR = tested on: SR
UACC-62 = tested on: UACC-62

Row | Structure (SMILES) | GI50 (ACHN) | GI50 (HL-60) | GI50 (HOP-62) | GI50 (K562) | GI50 (M14) | GI50 (MCF7) | GI50 (MOLT-4) | GI50 (NCI-H226) | GI50 (NCI-H460) | GI50 (OVCAR-4) | GI50 (OVCAR-5) | GI50 (OVCAR-8) | GI50 (RPMI-8226) | GI50 (SF-539) | GI50 (SK-MEL-28) | GI50 (SK-MEL-2) | GI50 (SN12C) | GI50 (SR) | GI50 (UACC-62)
1 | CCC1=NC(C(F)(F)F)(C(F)(F)F)N=C(/N=C(/N)N(C)C(C(C)C)P(=O)(OC(C)C)OC(C)C)O1 (stereo unspecified) | > 100 µM (inactive) | > 100 µM (inactive) | > 100 µM (inactive) | > 100 µM (inactive) | > 100 µM (inactive) | > 100 µM (inactive) | > 100 µM (inactive) | > 100 µM (inactive) | > 100 µM (inactive) | > 100 µM (inactive) | > 100 µM (inactive) | > 100 µM (inactive) | > 100 µM (inactive) | > 100 µM (inactive) | > 100 µM (inactive) | > 100 µM (inactive) | > 100 µM (inactive) | > 100 µM (inactive) | > 100 µM (inactive)
2 | N#Cc1c(O)nc2nn3c4ccc5ccccc5c4nnc3c2c1-c1ccc(Cl)cc1 | 2.49 µM (inactive) | 0.421 µM (active) | 3.16 µM (inactive) | 4.16 µM (inactive) | 2.38 µM (inactive) | 1.75 µM (inactive) | 2.4 µM (inactive) | 7.14 µM (inactive) | 2.24 µM (inactive) | 3.58 µM (inactive) | 6.24 µM (inactive) | 2.27 µM (inactive) | 2.9 µM (inactive) | 1.96 µM (inactive) | 2.24 µM (inactive) | 1.9 µM (inactive) | 3.34 µM (inactive) | 0.675 µM (active) | 1.49 µM (inactive)
3 | NC(=O)NC(=O)c1ccc(NC(=O)CBr)cc1 | 1.44 µM (inactive) | 1.54 µM (inactive) | 1.94 µM (inactive) | 0.705 µM (active) | 11.8 µM (inactive) | 1.76 µM (inactive) | 0.241 µM (active) | 3.33 µM (inactive) | 4.66 µM (inactive) | 1.66 µM (inactive) | 2.75 µM (inactive) | 2.26 µM (inactive) | 1.1 µM (active) | 2.18 µM (inactive) | 3.2 µM (inactive) | 1.99 µM (inactive) | 0.561 µM (active) | 0.333 µM (active) | 1.86 µM (inactive)
4 | COc1ccc(/C=C/C(=N/NC(=O)N/N=C(/C=C/c2ccc(OC)cc2)C(C)C)C(C)C)cc1 | 73.8 µM (inactive) | 33 µM (inactive) | 22 µM (inactive) | 37.8 µM (inactive) | 44.4 µM (inactive) | 64.6 µM (inactive) | 26.1 µM (inactive) | > 100 µM (inactive) | 48.3 µM (inactive) | > 100 µM (inactive) | 99.5 µM (inactive) | 75 µM (inactive) | 33.2 µM (inactive) | > 100 µM (inactive) | > 100 µM (inactive) | > 100 µM (inactive) | > 100 µM (inactive) | > 100 µM (inactive) | > 100 µM (inactive)
5 | C/C=C1/CC(C)C(C)(O)C(=O)OCC2C(O)CN3CCC(OC1=O)C23 (stereo unspecified) | > 100 µM (inactive) | > 100 µM (inactive) | > 100 µM (inactive) | > 100 µM (inactive) | > 100 µM (inactive) | > 100 µM (inactive) | > 100 µM (inactive) | > 100 µM (inactive) | > 100 µM (inactive) | > 100 µM (inactive) | > 100 µM (inactive) | > 100 µM (inactive) | > 100 µM (inactive) | > 100 µM (inactive) | – | > 100 µM (inactive) | > 100 µM (inactive) | > 100 µM (inactive) | > 100 µM (inactive)
6 | COc1cc2cc(C(=O)N3CC(COS(C)(=O)=O)c4ccc(NC(=O)OCc5ccccc5)cc43)[nH]c2c(OC)c1OC (stereo unspecified) | > 100 µM (inactive) | > 100 µM (inactive) | 79.1 µM (inactive) | > 100 µM (inactive) | > 100 µM (inactive) | 0.55 µM (active) | 28.3 µM (inactive) | > 100 µM (inactive) | 91.8 µM (inactive) | > 100 µM (inactive) | > 100 µM (inactive) | > 100 µM (inactive) | – | > 100 µM (inactive) | > 100 µM (inactive) | 67.1 µM (inactive) | > 100 µM (inactive) | 3.24 µM (inactive) | > 100 µM (inactive)
7 | CC(N)(/C=C/c1ccccc1)C(=O)O (stereo unspecified) | > 100 µM (inactive) | > 100 µM (inactive) | > 100 µM (inactive) | > 100 µM (inactive) | > 100 µM (inactive) | > 100 µM (inactive) | > 100 µM (inactive) | > 100 µM (inactive) | > 100 µM (inactive) | > 100 µM (inactive) | > 100 µM (inactive) | > 100 µM (inactive) | > 100 µM (inactive) | > 100 µM (inactive) | > 100 µM (inactive) | > 100 µM (inactive) | > 100 µM (inactive) | > 100 µM (inactive) | > 100 µM (inactive)
8 | NC(=O)NCCCC(NC(=O)OCCCCCCn1ccc(=O)[nH]c1=O)C(=O)O (stereo unspecified) | > 100 µM (inactive) | > 100 µM (inactive) | > 100 µM (inactive) | > 100 µM (inactive) | > 100 µM (inactive) | > 100 µM (inactive) | > 100 µM (inactive) | > 100 µM (inactive) | > 100 µM (inactive) | > 100 µM (inactive) | > 100 µM (inactive) | > 100 µM (inactive) | 34.5 µM (inactive) | > 100 µM (inactive) | > 100 µM (inactive) | > 100 µM (inactive) | 50.2 µM (inactive) | 9.42 µM (inactive) | > 100 µM (inactive)
9 | COc1cc(CNC(=O)CCCCCCCCCCSC#N)ccc1O | > 10 µM (inactive) | 5.69 µM (inactive) | – | 6.9 µM (inactive) | 7.38 µM (inactive) | 17.1 µM (inactive) | 3.94 µM (inactive) | 18.1 µM (inactive) | 13.3 µM (inactive) | 25 µM (inactive) | 30.3 µM (inactive) | 18.5 µM (inactive) | 14.6 µM (inactive) | 18 µM (inactive) | 7.66 µM (inactive) | 14.1 µM (inactive) | – | 8.47 µM (inactive) | 5.41 µM (inactive)
10 | Cc1cc2[nH]c(Cl)c(/C=C3\C(=O)Nc4ccccc43)c2cc1O | 6.53 µM (inactive) | 1.14 µM (inactive) | 4.93 µM (inactive) | 0.957 µM (active) | 2.88 µM (inactive) | 1.88 µM (inactive) | 1.46 µM (inactive) | 0.542 µM (active) | 3.91 µM (inactive) | 7.52 µM (inactive) | 6.46 µM (inactive) | 3.75 µM (inactive) | 2.7 µM (inactive) | 1.17 µM (inactive) | 9.71 µM (inactive) | 2.1 µM (inactive) | 3.38 µM (inactive) | 0.228 µM (active) | 1.23 µM (inactive)
11 | CC1CCCCCC(=O)c2c(O)cc(O)cc2CC(=O)O1 (stereo unspecified) [CURVULARIN] | > 100 µM (inactive) | 54.3 µM (inactive) | > 100 µM (inactive) | 41.6 µM (inactive) | > 100 µM (inactive) | > 100 µM (inactive) | 73.8 µM (inactive) | > 100 µM (inactive) | 98.2 µM (inactive) | > 100 µM (inactive) | > 100 µM (inactive) | > 100 µM (inactive) | 67.8 µM (inactive) | > 100 µM (inactive) | > 100 µM (inactive) | 76.6 µM (inactive) | > 100 µM (inactive) | 44.5 µM (inactive) | > 100 µM (inactive)
12 | O=Cc1c2n(c3ccccc13)N[C@@](Cc1ccc(O)cc1)(C(=O)O)C2 | 62.7 µM (inactive) | 47.1 µM (inactive) | 46.7 µM (inactive) | 97.3 µM (inactive) | 65.6 µM (inactive) | 55.5 µM (inactive) | 60.3 µM (inactive) | > 100 µM (inactive) | – | 68.7 µM (inactive) | > 100 µM (inactive) | > 100 µM (inactive) | > 100 µM (inactive) | > 100 µM (inactive) | > 100 µM (inactive) | > 100 µM (inactive) | – | 38.1 µM (inactive) | > 100 µM (inactive)
13 | CCC(CC)(CO)CNc1cc(Cl)nc(N)n1 | > 100 µM (inactive) | > 100 µM (inactive) | > 100 µM (inactive) | > 100 µM (inactive) | – | > 100 µM (inactive) | > 100 µM (inactive) | 77.1 µM (inactive) | > 100 µM (inactive) | 87.9 µM (inactive) | > 100 µM (inactive) | > 100 µM (inactive) | 92.9 µM (inactive) | > 100 µM (inactive) | > 100 µM (inactive) | > 100 µM (inactive) | > 100 µM (inactive) | > 100 µM (inactive) | > 100 µM (inactive)
14 | COc1c2ccsc2c(OC)c2ccsc12 | > 100 µM (inactive) | > 100 µM (inactive) | 40.2 µM (inactive) | > 100 µM (inactive) | > 100 µM (inactive) | > 100 µM (inactive) | > 100 µM (inactive) | > 100 µM (inactive) | > 100 µM (inactive) | > 100 µM (inactive) | > 100 µM (inactive) | > 100 µM (inactive) | – | 26.1 µM (inactive) | > 100 µM (inactive) | > 100 µM (inactive) | > 100 µM (inactive) | > 100 µM (inactive) | > 100 µM (inactive)
15 | C=C1CCC2CC1[C@@H](C(=O)c1c[nH]c3ccccc13)NC2(C)C (stereo partly specified) | > 37.5 µM (inactive) | 34.8 µM (inactive) | > 37.5 µM (inactive) | 21.9 µM (inactive) | – | > 37.5 µM (inactive) | > 37.5 µM (inactive) | > 37.5 µM (inactive) | > 37.5 µM (inactive) | > 37.5 µM (inactive) | > 37.5 µM (inactive) | > 37.5 µM (inactive) | > 37.5 µM (inactive) | > 37.5 µM (inactive) | > 37.5 µM (inactive) | 27.1 µM (inactive) | > 37.5 µM (inactive) | 33 µM (inactive) | 18.7 µM (inactive)
